Experiments:
mGlu5 receptor = target: T1, mGlu5 receptor (Rattus norvegicus, UniProt P31424); experiment: Radioligand binding assay ([3H]MPEP) at metabotropic glutamate receptor 5 in rat brain; conditions: rat forebrain membranes, 4 nM [3H]MPEP; read-out: affinity (Ki) for mGlu5 receptor
T1 construct: from tissue; host or cells: forebrain (cortex, striatum and hippocampus) of male Sprague Dawley rats
Protocol: Radioligand Binding Assay at metabotropic glutamate receptor 5 in rat brain.
a) Membrane preparation: male Sprague Dawley rats (200-300 g, Charles River, Italy) were killed by cervical dislocation and the forebrain (cortex, striatum and hippocampus) was homogenized (2×20 sec) in 50 vols of cold 50 mM Tris buffer pH 7.4, using a Politron homogenizer (Kinematica). Homogenates were centrifuged at 48000×g for 15 min, resuspended in 50 vols of the same buffer, incubated at 37° C. for 15 min and centrifuged and resuspended two more times. The final pellets were frozen and stored at −80° C. until use.
b) Binding assay: pellets from rat forebrain were resuspended in 100 vols of 20 mM HEPES, 2 mM MgCl2, 2 mM CaCl2, pH 7.4. The membranes were incubated in a final volume of 1 ml for 60 min at 25° C. with 4 nM [^3H]MPEP in the absence or presence of competing drugs. Non-specific binding was determined in the presence of 10 μM MPEP (Spooren W. et al., Trends Pharmacol Sci. 22, 331-337, 2001). The incubation was stopped by the addition of cold Tris buffer pH 7.4 and rapid filtration through 0.5% polyethyleneimine pretreated Filtermat 1204-401 (Wallac) filters. The filters were then washed with cold buffer and the radioactivity retained on the filters was counted by liquid scintillation spectrometry. […]

conscious rats = experiment: Cystometry in conscious rats (bladder volume capacity); format: in vivo, rat; conditions: for effect on bladder volume capacity: 1-3 h after treatment; for "In vivo" cystometry MED (Minimal Effective Dose that induces statistically significant increase of bladder volume capacity): oral
Protocol: Male Sprague-Dawley rats [Crl: CD® (SD) IGS BR] of 300-400 g b.w. supplied by Charles River Italia were used. The animals were housed with free access to food and water and maintained on a forced 12-hour-light/12-hour-dark cycle at 22-24° C. of temperature, except during the experiment. To quantify urodynamic parameters in conscious rats, cystometrographic studies were performed according to the procedure previously reported (Guarneri et al., Pharmacol. Res. 24: 175, 1991).
Briefly, the rats were anaesthetised by intraperitoneal administration of 3 ml/kg of Equithensin solution (pentobarbital 30 mg/kg and chloral hydrate 125 mg/kg) and placed in a supine position. An approximately 10 mm long midline incision was made in the shaved and cleaned abdominal wall. The urinary bladder was gently freed from adhering tissues, emptied and then cannulated via an incision in the bladder body, using a polyethylene cannula (0.58 mm internal diameter, 0.96 mm external diameter) which was permanently sutured with silk thread. The cannula was exteriorised through a subcutaneous tunnel in the retroscapular area, where it was connected to a plastic adapter in order to avoid the risk of removal by the animal. For drug testing, the rats were utilised one day after implantation.
On the day of the experiment, the rats were placed in modified Bollman cages, i.e., restraining cages that were large enough to permit the rats to adopt a normal crouched posture, but narrow enough to prevent turning around. After a stabilisation period of about 20 minutes, the free tip of the bladder cannula was connected through a T-shaped tube to a pressure transducer (Statham P23XL) and to a peristaltic pump (Gilson Minipuls 2) for continuous infusion of a warm (37° C.) saline solution into the urinary bladder, at a constant rate of 0.1 ml/minute. The intraluminal-pressure signal during infusion of saline into the bladder (cystometrogram) was continuously recorded on a polygraph (Rectigraph-8K San-ei with BM614/2 amplifier from Biomedica Mangoni) or stored on PC by data acquisition system (PowerLab, Chart 4 software, AD Instruments). From the cystometrogram, bladder volume capacity (BVC) was evaluated. BVC (in ml) is defined as the volume of saline infused into the bladder necessary to induce detrusor contraction followed by micturition. Basal BVC value was evaluated as the mean of the values observed in the cystometrograms recorded in an initial period of 30-60 minutes. At this point in the assay, the infusion was interrupted and the test compounds were administered orally by a stomach tube. The bladder infusion restarted and changes in BVC were evaluated from the mean values obtained in the cystometrograms observed during 1, 2, and 3 hours after treatment. The compounds were administered in a volume of 2 ml/kg. Groups of control animals received the same amount of vehicle corresponding to a solution 0.5% methocel in water.
Under the given test conditions, measurement of BVC is equivalent to measurement of interval time between micturitions.
Each experimental group was composed of 4-11 animals. All data were expressed as mean±standard error. The percent change of BVC versus the basal value, as well as Δ value (difference in ml) of BVC (BVC at time “x” minus basal value), were also evaluated for each rat/time. In the figures, data are reported as % change versus the basal value.
Statistical analysis on BVC values, as well as on Δ values, was performed by S.A.S./STAT software, version 6.12. The difference between vehicle and active treatment effect was evaluated on Δ values of BVC, whereas the difference between the values at different times versus the basal values was evaluated on original BVC data.

T1 sequence (P31424 21-1203): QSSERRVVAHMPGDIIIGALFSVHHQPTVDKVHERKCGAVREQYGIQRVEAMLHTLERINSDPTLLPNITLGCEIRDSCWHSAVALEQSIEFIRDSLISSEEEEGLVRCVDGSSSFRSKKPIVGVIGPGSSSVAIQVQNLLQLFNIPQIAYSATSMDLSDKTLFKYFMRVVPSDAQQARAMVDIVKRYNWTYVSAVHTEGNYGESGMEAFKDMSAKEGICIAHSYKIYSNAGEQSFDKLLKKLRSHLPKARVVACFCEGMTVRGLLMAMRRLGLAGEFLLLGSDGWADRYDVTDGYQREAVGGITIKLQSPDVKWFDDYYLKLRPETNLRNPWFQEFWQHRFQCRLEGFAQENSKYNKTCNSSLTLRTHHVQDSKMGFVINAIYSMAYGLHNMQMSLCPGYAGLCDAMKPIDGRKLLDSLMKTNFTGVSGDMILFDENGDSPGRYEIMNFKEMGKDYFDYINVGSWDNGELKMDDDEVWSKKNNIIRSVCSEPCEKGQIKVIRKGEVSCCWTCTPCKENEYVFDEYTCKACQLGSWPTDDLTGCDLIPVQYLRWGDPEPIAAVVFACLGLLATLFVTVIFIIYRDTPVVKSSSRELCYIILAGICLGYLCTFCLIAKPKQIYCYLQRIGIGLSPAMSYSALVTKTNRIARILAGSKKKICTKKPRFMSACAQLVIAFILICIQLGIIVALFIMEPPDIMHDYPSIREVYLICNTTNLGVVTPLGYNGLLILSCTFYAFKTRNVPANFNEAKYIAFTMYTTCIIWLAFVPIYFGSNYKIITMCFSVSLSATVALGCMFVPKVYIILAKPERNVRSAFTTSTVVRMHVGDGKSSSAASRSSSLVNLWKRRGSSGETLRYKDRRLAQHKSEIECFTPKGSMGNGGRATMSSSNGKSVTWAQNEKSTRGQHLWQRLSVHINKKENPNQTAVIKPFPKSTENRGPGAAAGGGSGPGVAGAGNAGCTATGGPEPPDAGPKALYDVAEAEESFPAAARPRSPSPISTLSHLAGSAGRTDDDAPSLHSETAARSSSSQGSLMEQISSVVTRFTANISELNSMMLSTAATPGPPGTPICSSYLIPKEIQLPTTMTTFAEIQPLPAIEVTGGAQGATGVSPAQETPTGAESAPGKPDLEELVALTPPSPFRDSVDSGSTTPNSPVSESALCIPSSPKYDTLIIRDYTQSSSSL

SMILES	"In vivo" cystometry MED (Minimal Effective Dose that induces statistically significant increase of bladder volume capacity) (conscious rats)	other results
Cc1cccc(C#CC=C2CCN(c3ncccc3[N+](=O)[O-])CC2)n1 [Example 1, 2-{4-[3-(6-Methylpyridin-2-yl)prop-2-ynylidene]piperidin-1-yl}-3-nitropyridine]	3 mg/kg os	Ki (mGlu5 receptor): 370 pM; effect on bladder volume capacity (conscious rats; 1 mg/kg orally): proved effective in increasing the bladder volume capacity; effect on bladder volume capacity (conscious rats; 3 mg/kg orally): proved effective in increasing the bladder volume capacity
Cc1cccc(C#CC=C2CCN(c3nc(C)ccc3[N+](=O)[O-])CC2)n1 [Example 5, 6-Methyl-2-[4-[3-(6-methylpyridin-2-yl)prop-2-ynylidene]piperidin-1-yl]-3-nitropyridine]	0.1 mg/kg os	–
COc1ccc([N+](=O)[O-])c(N2CCC(=CC#Cc3cccc(C)n3)CC2)n1 [Example 6, 6-Methoxy-2-{4-[3-(6-methylpyridin-2-yl)prop-2-ynylidene]piperidin-1-yl}-3-nitropyridine]	1 mg/kg os	–
O=[N+]([O-])c1cccnc1N1CCC(=CC#Cc2ccccn2)CC1 [Example 9, 3-Nitro-2-[4-(3-pyridin-2-ylprop-2-ynylidene)piperidin-1-yl]pyridine]	1 mg/kg os	–
O=[N+]([O-])c1cccnc1N1CCC(=CC#Cc2ccccc2)CC1 [Example 10, 3-Nitro-2-[4-(3-phenylprop-2-ynylidene)piperidin-1-yl]pyridine]	1 mg/kg os	effect on bladder volume capacity (conscious rats; 0.3 mg/kg orally): slightly increased the bladder volume capacity (not statistical significant); effect on bladder volume capacity (conscious rats; 1 mg/kg orally): proved effective in increasing bladder volume capacity
O=[N+]([O-])c1cccnc1N1CCC(=CC#Cc2ccc(F)nc2)CC1 [Example 35, 2-{4-[3-(6-Fluoropyridin-3-yl)prop-2-ynylidene]piperidin-1-yl}-3-nitropyridine]	3 mg/kg os	–
Cc1cccc(C#CC=C2CCN(c3ccccc3C#N)CC2)n1 [Example 43, 2-{4-[3-(6-Methylpyridin-2-yl)prop-2-ynylidene]piperidin-1-yl}benzonitrile]	3 mg/kg os	–
Cc1cccc(C#CC=C2CCN(c3ccc(F)cc3[N+](=O)[O-])CC2)n1 [Example 55, 2-{3-[1-(4-Fluoro-2-nitrophenyl)piperidin-4-ylidene]prop-1-ynyl}-6-methylpyridine]	0.3 mg/kg os	–
Cc1cccc(C#CC=C2CCN(c3ccc(C#N)cc3[N+](=O)[O-])CC2)n1 [Example 56, 4-{4-[3-(6-Methylpyridin-2-yl)prop-2-ynylidene]piperidin-1-yl}-3-nitrobenzonitrile]	1 mg/kg os	–
O=[N+]([O-])c1cccnc1N1CCC(=C(F)C#Cc2ccccc2)CC1 [Example 67, 2-[4-(1-Fluoro-3-phenylprop-2-yn-1-ylidene)piperidin-1-yl]-3-nitropyridine]	1 mg/kg os	–
O=[N+]([O-])c1cccnc1N1CCC(=CC#Cc2cc(F)cc(F)c2)CC1 [Example 202, 2-{4-[3-(3,5-Difluorophenyl)prop-2-yn-1-ylidene]piperidin-1-yl}-3-nitropyridine]	3 mg/kg os	–
O=[N+]([O-])c1cccnc1N1CCC(=CC#Cc2cccc(Br)c2)CC1 [Example 208, 2-{4-[3-(3-Bromophenyl)prop-2-yn-1-ylidene]piperidin-1-yl}-3-nitropyridine]	0.3 mg/kg os	–
Cc1nc(C#Cc2cccnc2)cs1 [MTEP, reference compound]	3 mg/kg os	effect on bladder volume capacity (conscious rats; 1 mg/kg orally): only a slight increase of bladder volume capacity; effect on bladder volume capacity (conscious rats; 3 mg/kg orally): sustained increase

Source: US8518916B2, “Heterocyclic derivatives as M-GLU5 antagonists” (Recordati Ireland Limited, priority 2007, dated 2013)
